# Measured values: patent publication US20220117938A1, “COMBINATON THERAPY WITH A DON PRODRUG AND AN IMMUNE CHECKPOINT INHIBITOR” (DRACEN PHARMACEUTICALS, INC., priority 2019, published 2022)
# Tested on: MC38 tumors
# Test: Anti-tumor efficacy of Compound 1 and Compound 3 by IV and SC routes in the MC38 model (Example 9)
# Assay type: in vivo, mice
# Method: Female C57BL/6 mice were inoculated subcutaneously in the right flank with MC38 cells for tumor development. Six days after tumor inoculation, mice with tumor sizes ranging from 52-97 mm^3 (average tumor size 71 mm^3) were selected and assigned into 10 groups using stratified randomization with 8 mice per group based upon their tumor volumes. The treatments were started from the day of randomization (defined as D0), Group 1 was treated with Vehicle control, SC qd×5 days on (Mon-Fri)×4 cycles; Group 2 was treated with Compound 1, 1.4 mpk SC, qd×5 days on (Mon-Fri)×4 cycles; Group 3 was treated with Compound 1, 7 mpk IV, biw (Mon, Thu)×4 cycles; Group 4 was treated with Compound 1, 14 mpk IV, biw (Mon, Thu)×4 cycles; Group 5 was treated with Compound 1, 14 mpk IV, qw (Mon)×4 cycles; Group 6 was treated with Compound 1, 21 mpk IV, qw (Mon)×4 cycles; Group 7 was treated with Compound 3, 1 mpk SC, qd 5 days on (Mon-Fri)×4 cycles; Group 8 was treated with Compound 3, 3 mpk SC, qd 5 days on (Mon-Fri)×4 cycles; Group 9 was treated with Compound 3, 9 mpk SC, qd 5 days on (Mon-Fri)×4 cycles; and Group 10 was treated with Compound 3, 7 mpk IV, tiw (Mon, Wed, Fri)×4 cycles. The tumor sizes were measured three times per week during the treatment. Survival was monitored with tumor volume exceeding 2000 mm^3 as endpoint. The entire study was terminated on D44 after start of the treatment. All treatments were well-tolerated without any adverse effects or significant body weight loss.
# [1] = Group 7, 1 mpk SC qd Mon-Fri x4 cycles
# [2] = Group 7, 1 mpk SC qd Mon-Fri x4 cycles, day 11
# [3] = Group 8, 3 mpk SC qd Mon-Fri x4 cycles
# [4] = Group 8, 3 mpk SC qd Mon-Fri x4 cycles, day 11
# [5] = Group 9, 9 mpk SC qd Mon-Fri x4 cycles
# [6] = Group 9, 9 mpk SC qd Mon-Fri x4 cycles, day 11
# [7] = Group 10, 7 mpk IV tiw x4 cycles
compound,measurement,setting,value
"CC(=O)N[C@@H](Cc1c[nH]c2ccccc12)C(=O)N[C@@H](CCC(=O)C=[N+]=[N-])C(=O)O [Compound 3, (S)-2-((S)-2-acetamido-3-(1H-indol-3-yl)propanamido)-6-diazo-5-oxohexanoic acid]",ILS,[1],106.7%
same,MST,[1],31 days
same,RTV at day 11,[1],2.22 ± 0.22
same,Tumor Size at day 11,[1],152 ± 10 mm^3
same,Tumor volume,"Group 7, 1 mpk SC qd Mon-Fri x4 cycles, day 0",70 ± 4 mm^3
same,Tumor volume,"Group 7, 1 mpk SC qd Mon-Fri x4 cycles, day 2",91 ± 9 mm^3
same,Tumor volume,"Group 7, 1 mpk SC qd Mon-Fri x4 cycles, day 4",83 ± 9 mm^3
same,Tumor volume,"Group 7, 1 mpk SC qd Mon-Fri x4 cycles, day 7",201 ± 26 mm^3
same,Tumor volume,"Group 7, 1 mpk SC qd Mon-Fri x4 cycles, day 9",181 ± 18 mm^3
same,T/C,[2],13.66%
same,TGI,[2],92.34%
same,Tumor volume,[2],152 ± 10 mm^3
same,Tumor volume,"Group 7, 1 mpk SC qd Mon-Fri x4 cycles, day 14",293 ± 60 mm^3
same,Tumor volume,"Group 7, 1 mpk SC qd Mon-Fri x4 cycles, day 16",298 ± 60 mm^3
same,Tumor volume,"Group 7, 1 mpk SC qd Mon-Fri x4 cycles, day 18",400 ± 79 mm^3
same,Tumor volume,"Group 7, 1 mpk SC qd Mon-Fri x4 cycles, day 21",644 ± 160 mm^3
same,Tumor volume,"Group 7, 1 mpk SC qd Mon-Fri x4 cycles, day 23",975 ± 238 mm^3
same,ILS,[3],170.0%
same,MST,[3],40.5 days
same,RTV at day 11,[3],0.85 ± 0.11
same,Tumor Size at day 11,[3],39 ± 5 mm^3
same,Tumor volume,"Group 8, 3 mpk SC qd Mon-Fri x4 cycles, day 0",70 ± 5 mm^3
same,Tumor volume,"Group 8, 3 mpk SC qd Mon-Fri x4 cycles, day 2",88 ± 7 mm^3
same,Tumor volume,"Group 8, 3 mpk SC qd Mon-Fri x4 cycles, day 4",59 ± 9 mm^3
same,Tumor volume,"Group 8, 3 mpk SC qd Mon-Fri x4 cycles, day 7",57 ± 14 mm^3
same,Tumor volume,"Group 8, 3 mpk SC qd Mon-Fri x4 cycles, day 9",45 ± 6 mm^3
same,T/C,[4],5.22%
same,TGI,[4],101.21%
same,Tumor volume,[4],39 ± 5 mm^3
same,Tumor volume,"Group 8, 3 mpk SC qd Mon-Fri x4 cycles, day 14",41 ± 7 mm^3
same,Tumor volume,"Group 8, 3 mpk SC qd Mon-Fri x4 cycles, day 16",47 ± 7 mm^3
same,Tumor volume,"Group 8, 3 mpk SC qd Mon-Fri x4 cycles, day 18",22 ± 4 mm^3
same,Tumor volume,"Group 8, 3 mpk SC qd Mon-Fri x4 cycles, day 21",29 ± 3 mm^3
same,Tumor volume,"Group 8, 3 mpk SC qd Mon-Fri x4 cycles, day 23",26 ± 2 mm^3
same,Tumor volume,"Group 8, 3 mpk SC qd Mon-Fri x4 cycles, day 25",23 ± 4 mm^3
same,Tumor volume,"Group 8, 3 mpk SC qd Mon-Fri x4 cycles, day 28",22 ± 4 mm^3
same,Tumor volume,"Group 8, 3 mpk SC qd Mon-Fri x4 cycles, day 30",52 ± 8 mm^3
same,Tumor volume,"Group 8, 3 mpk SC qd Mon-Fri x4 cycles, day 32",213 ± 47 mm^3
same,Tumor volume,"Group 8, 3 mpk SC qd Mon-Fri x4 cycles, day 35",351 ± 61 mm^3
same,Tumor volume,"Group 8, 3 mpk SC qd Mon-Fri x4 cycles, day 37",692 ± 129 mm^3
same,ILS,[5],180.0%
same,MST,[5],42 days
same,RTV at day 11,[5],0.56 ± 0.07
same,Tumor Size at day 11,[5],39 ± 5 mm^3
same,Tumor volume,"Group 9, 9 mpk SC qd Mon-Fri x4 cycles, day 0",71 ± 5 mm^3
same,Tumor volume,"Group 9, 9 mpk SC qd Mon-Fri x4 cycles, day 2",88 ± 7 mm^3
same,Tumor volume,"Group 9, 9 mpk SC qd Mon-Fri x4 cycles, day 4",59 ± 9 mm^3
same,Tumor volume,"Group 9, 9 mpk SC qd Mon-Fri x4 cycles, day 7",57 ± 14 mm^3
same,Tumor volume,"Group 9, 9 mpk SC qd Mon-Fri x4 cycles, day 9",45 ± 6 mm^3
same,T/C,[6],3.45%
same,TGI,[6],102.98%
same,Tumor volume,[6],39 ± 5 mm^3
same,Tumor volume,"Group 9, 9 mpk SC qd Mon-Fri x4 cycles, day 14",41 ± 7 mm^3
same,Tumor volume,"Group 9, 9 mpk SC qd Mon-Fri x4 cycles, day 16",47 ± 7 mm^3
same,Tumor volume,"Group 9, 9 mpk SC qd Mon-Fri x4 cycles, day 18",22 ± 4 mm^3
same,Tumor volume,"Group 9, 9 mpk SC qd Mon-Fri x4 cycles, day 21",29 ± 3 mm^3
same,Tumor volume,"Group 9, 9 mpk SC qd Mon-Fri x4 cycles, day 23",26 ± 2 mm^3
same,Tumor volume,"Group 9, 9 mpk SC qd Mon-Fri x4 cycles, day 25",23 ± 4 mm^3
same,Tumor volume,"Group 9, 9 mpk SC qd Mon-Fri x4 cycles, day 28",22 ± 4 mm^3
same,Tumor volume,"Group 9, 9 mpk SC qd Mon-Fri x4 cycles, day 30",52 ± 8 mm^3
same,Tumor volume,"Group 9, 9 mpk SC qd Mon-Fri x4 cycles, day 32",213 ± 47 mm^3
same,Tumor volume,"Group 9, 9 mpk SC qd Mon-Fri x4 cycles, day 35",351 ± 61 mm^3
same,Tumor volume,"Group 9, 9 mpk SC qd Mon-Fri x4 cycles, day 37",692 ± 129 mm^3
same,Tumor volume,"Group 9, 9 mpk SC qd Mon-Fri x4 cycles, day 39",1235 ± 196 mm^3
same,Tumor volume,"Group 9, 9 mpk SC qd Mon-Fri x4 cycles, day 42",2174 ± 275 mm^3
same,ILS,[7],146.7%
same,MST,[7],37 days
same,Tumor volume,"Group 10, 7 mpk IV tiw x4 cycles, day 0",71 ± 5 mm^3
same,Tumor volume,"Group 10, 7 mpk IV tiw x4 cycles, day 2",86 ± 5 mm^3
same,Tumor volume,"Group 10, 7 mpk IV tiw x4 cycles, day 4",76 ± 7 mm^3
same,Tumor volume,"Group 10, 7 mpk IV tiw x4 cycles, day 7",76 ± 8 mm^3
same,Tumor volume,"Group 10, 7 mpk IV tiw x4 cycles, day 9",61 ± 7 mm^3
same,Tumor volume,"Group 10, 7 mpk IV tiw x4 cycles, day 11",68 ± 13 mm^3
same,Tumor volume,"Group 10, 7 mpk IV tiw x4 cycles, day 14",85 ± 16 mm^3
same,Tumor volume,"Group 10, 7 mpk IV tiw x4 cycles, day 16",115 ± 21 mm^3
same,Tumor volume,"Group 10, 7 mpk IV tiw x4 cycles, day 18",107 ± 21 mm^3
same,Tumor volume,"Group 10, 7 mpk IV tiw x4 cycles, day 21",131 ± 21 mm^3
same,Tumor volume,"Group 10, 7 mpk IV tiw x4 cycles, day 23",233 ± 46 mm^3
same,Tumor volume,"Group 10, 7 mpk IV tiw x4 cycles, day 25",273 ± 59 mm^3
same,Tumor volume,"Group 10, 7 mpk IV tiw x4 cycles, day 28",356 ± 103 mm^3
same,Tumor volume,"Group 10, 7 mpk IV tiw x4 cycles, day 30",575 ± 121 mm^3
same,Tumor volume,"Group 10, 7 mpk IV tiw x4 cycles, day 32",849 ± 134 mm^3
same,Tumor volume,"Group 10, 7 mpk IV tiw x4 cycles, day 35",1688 ± 223 mm^3
